Measured values taken from PMC4724192 (Biochemistry, 2014).
Where “and” joins values, the source holds several entries; their conditions need not be identical. Equal entries are not always repeated. Where two headings read alike, the source gives them in different places.

Assays:
2P-ERK2 [1] = target: T1, 2P-ERK2 (Rattus norvegicus, UniProt P63086); assay: Preincubation / 300-fold dilution experiment, recovery of activity; conditions: for kinetic behaviour of binding and release: linear product accumulation, rapid recovery on dilution
ERK2 = conditions: read-out: IC50 Published previously; cited from earlier work
2P-ERK2 [2] = target: T1, 2P-ERK2; conditions: read-out: IC50 This study; 2P-ERK2, 20 μM sub-D, 100 μM ATP, 25 °C; eq 1
2P-ERK2 [3] = target: T1, 2P-ERK2; conditions: for mode of inhibition (Lineweaver-Burk replots): 2P-ERK2, varying ATP; for Ki: 2P-ERK2, rapid on/off inhibitors, varying ATP, 20 μM sub-D
2P-ERK2 [4] = target: T1, 2P-ERK2; assay: Morrison titration experiment for tight-binding inhibitors; type: biochemical
2P-ERK2 [5] = target: T1, 2P-ERK2; type: biochemical
0P-ERK2 = 0P-ERK2 (Rattus norvegicus, UniProt P63086); assay: biochemical
ERK [6] = conditions: read-out: Kd in vitro; cited from earlier work
ERK [7] = conditions: read-out: IC50 in vivo (biological activity); cited from earlier work

T1 sequence (P63086 whole entry): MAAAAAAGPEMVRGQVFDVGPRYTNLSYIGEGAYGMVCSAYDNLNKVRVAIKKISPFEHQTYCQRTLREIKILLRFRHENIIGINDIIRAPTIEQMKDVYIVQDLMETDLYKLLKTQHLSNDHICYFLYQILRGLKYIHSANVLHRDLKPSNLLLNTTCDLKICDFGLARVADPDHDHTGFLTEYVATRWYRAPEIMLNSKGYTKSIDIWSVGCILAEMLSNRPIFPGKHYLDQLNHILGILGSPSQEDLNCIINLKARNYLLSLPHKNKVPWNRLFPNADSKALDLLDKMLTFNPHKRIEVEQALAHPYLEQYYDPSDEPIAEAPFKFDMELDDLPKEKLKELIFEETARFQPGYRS
Chain of 0P-ERK2 (P63086 whole entry): as above

| Compound | kon (rate constant for association), lower bound (2P-ERK2 [1]; 2P-ERK2, inferred from dissociation rate constant >0.05 s^−1) | kinetic behaviour of binding and release (2P-ERK2 [1]; 2P-ERK2) | IC50 (ERK2) [µM] | IC50 (2P-ERK2 [2]) [µM] | mode of inhibition (Lineweaver-Burk replots) (2P-ERK2 [3]) | Ki (2P-ERK2 [3]) [µM] | Ki (2P-ERK2 [4]) [µM] | kinetic behaviour of onset of inhibition (2P-ERK2 [5]; 2P-ERK2, curved product accumulation) | kon (2P-ERK2 [5]; read-out: kon (apparent rate constant for association)) [M⁻¹ s⁻¹] | Kd (2P-ERK2 [1]) [µM] | residence time (inverse of koff) (2P-ERK2 [1]; 2P-ERK2, predicted from koff) [h] | koff (2P-ERK2 [1]; read-out: koff (dissociation rate constant)) [s⁻¹] | Ki (0P-ERK2) [µM] | Kd (ERK [6]) [µM] | IC50 (ERK [7]) |
| --- | --- | --- | --- | --- | --- | --- | --- | --- | --- | --- | --- | --- | --- | --- | --- |
| Nc1[nH]nc2nnc(-c3c(-c4ccccc4)nn4ccccc34)cc12 [FR180204] | >0.8 ^d μM^−1 s^−1 | rapid on/off inhibitors | 0.14 | 0.33 ± 0.064 | competitive versus ATP | 0.063 ± 0.017 | – | – | – | – | – | – | – | – | – |
| Cn1cnc2c(NCc3ccccc3)nc(NCCO)nc21 [Olomoucin] | – | rapid on/off inhibitors | – | 33 | competitive versus ATP | 10.8 | – | – | – | – | – | – | – | – | – |
| Nc1nccc(-c2c(-c3ccc(F)cc3)ncn2C2CCNCC2)n1 [SB220025] | – | rapid on/off inhibitors | – | – | – | – | – | – | – | – | – | – | – | – | – |
| O=C(Nc1ccc2[nH]nc(-c3ccncc3)c2c1)[C@@H]1CCN(CC(=O)N2CCN(c3ccc(-c4ncccn4)cc3)CC2)C1 [SCH772984] | – | – | 0.00024 | – | – | – | 0.00012 ± 0.0001 | slow-onset inhibition | 2.8e+06 ± 340000 | 0.00011 ± 2.1e-05 | 0.9 | 0.000306 | 0.00012 ± 4e-05 | 0.00019 | < 0.1 µM and 0.06 µM |
